Source: PMC9974123, “Targeting prolyl-tRNA synthetase via a series of ATP-mimetics to accelerate drug discovery against toxoplasmosis” (PLOS Pathogens, 2023)
Read-outs that look alike come from different tables or passages of the source.

Tests used:
Toxoplasma gondii WT = tested on: T1, Toxoplasma gondii WT; experiment: microbe, parasite or virus in culture; design: species or system human foreskin fibroblasts (HFF); T. gondii RH NLuc tachyzoite growth in HFF monolayer, Nano-Glo luciferase luminescence; conditions: Fibroblast, 48 h
T1 construct: RH
Procedure: Compounds were synthesized (HPLC purity > 95%) according to reported procedures. A confluent Human Foreskin Fibroblast (HFF) monolayer was infected with 2,000 tachyzoites of RH parasites expressing the NLuc luciferase (RH NLuc) for 2 h to allow parasite invasion. Each compound was added to the culture medium, and infected cells were incubated at 37° C for 48 h. To measure luminescence, the medium was replaced by 50 μL of PBS, and the luminescence assay was performed using Nano-Glo Luciferase Assay System according to the manufacturer’s instructions (Promega). After 3 min of incubation, the luminescence was measured using the CLARIOstar (BMG Labtech) plate reader. EC50 was determined using a non-linear regression analysis of normalized data assuming a sigmoidal dose-response. […] Statistical analyses were performed using a one-way ANOVA test with GraphPad software.  Fig 4 Activity of five compounds on PRS edited parasites. A-D) EC50 values for L95, L96, L97, and L36 were determined for wild-type (WT) and the engineered PRS mutant strains (T477A and T592S). Data are mean value ±SD from at least 2 independent biological replicates, each with 3 technical replicates. Associated dose-response curves are shown in S2C Fig. Higher EC50 values for the mutants confirm that PRS is the molecular target of all five compounds tested. The P-values were calculated using one-way ANOVA analysis and multiple-comparison post hoc tests. n.s., not significant. Associated dose-response curves are shown in S1 Fig. E) The EC50 (nM) values for the engineered PRS mutant strains (T477A and T592S) are shown in comparison with the TgPRS wild type. F) The catalytic cavity of TgPRS is shown with two inhibitors along with their electron densities–HFG (green) and L95 (red)–bound to the tRNA and L-pro binding sites and the ATP binding site respectively. The ribbon of PRS is in cyan whilst the resistance-conferring mutating residues T477 and T592 to L35 are shown in purple. (n.d.–not detected).

[1] = molecular target: T2, Toxoplasma gondii prolyl-tRNA synthetase (TgPRS) (Toxoplasma gondii, UniProt S8G8I1); experiment: co-crystal structure with L-pro; aminoacylation inhibition (malachite green); thermal shift (ΔTm […] °C with L-Pro); type: biochemical
T2 construct: gene TGME49_219850; length 334–830

[2] = molecular target: T3, Homo sapiens prolyl-tRNA synthetase (HsPRS) (Homo sapiens, UniProt P07814); experiment: co-crystal structure with L-pro; aminoacylation inhibition; thermal shift (ΔTm […] °C with L-pro); type: binding
T3 construct: gene EPRS1; length 1015–1506
T3 sequence (P07814 1015-1506): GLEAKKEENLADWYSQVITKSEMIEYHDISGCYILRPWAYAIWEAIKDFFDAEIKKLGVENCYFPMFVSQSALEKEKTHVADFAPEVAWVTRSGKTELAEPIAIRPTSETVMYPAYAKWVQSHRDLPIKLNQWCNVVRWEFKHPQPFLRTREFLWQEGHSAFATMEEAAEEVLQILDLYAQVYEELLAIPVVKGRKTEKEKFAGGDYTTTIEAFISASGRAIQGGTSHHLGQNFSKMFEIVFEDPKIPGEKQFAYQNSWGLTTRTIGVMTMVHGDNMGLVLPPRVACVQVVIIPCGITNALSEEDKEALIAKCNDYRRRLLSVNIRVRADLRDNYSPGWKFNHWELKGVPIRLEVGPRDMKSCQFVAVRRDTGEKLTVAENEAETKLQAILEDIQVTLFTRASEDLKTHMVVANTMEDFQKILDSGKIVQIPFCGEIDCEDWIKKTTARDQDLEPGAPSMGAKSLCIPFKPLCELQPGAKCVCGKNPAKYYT

[3] = molecular target: T2, Toxoplasma gondii prolyl-tRNA synthetase (TgPRS); experiment: co-crystal structure with L-pro; aminoacylation inhibition (malachite green); thermal shift (ΔTm […] °C with L-Pro); type: biochemical; remark: listed apart in the source
[4] = molecular target: T3, Homo sapiens prolyl-tRNA synthetase (HsPRS); experiment: co-crystal structure with L-pro; aminoacylation inhibition; thermal shift (ΔTm […] °C with L-pro); type: binding; remark: listed apart in the source
[5] = molecular target: T2, Toxoplasma gondii prolyl-tRNA synthetase (TgPRS); experiment: co-crystal structure with L-pro; aminoacylation inhibition (malachite green); thermal shift (ΔTm […] °C with L-Pro); type: biochemical; remark: listed apart in the source
[6] = molecular target: T3, Homo sapiens prolyl-tRNA synthetase (HsPRS); experiment: co-crystal structure with L-pro; aminoacylation inhibition; thermal shift (ΔTm […] °C with L-pro); type: binding; remark: listed apart in the source
[7] = molecular target: T2, Toxoplasma gondii prolyl-tRNA synthetase (TgPRS); experiment: co-crystal structure with L-pro; aminoacylation inhibition (malachite green); thermal shift (ΔTm […] °C with L-Pro); type: biochemical; remark: listed apart in the source
[8] = molecular target: T2, Toxoplasma gondii prolyl-tRNA synthetase (TgPRS); experiment: as above; type: biochemical; remark: listed apart in the source

T2 sequence (S8G8I1 entry or part of it): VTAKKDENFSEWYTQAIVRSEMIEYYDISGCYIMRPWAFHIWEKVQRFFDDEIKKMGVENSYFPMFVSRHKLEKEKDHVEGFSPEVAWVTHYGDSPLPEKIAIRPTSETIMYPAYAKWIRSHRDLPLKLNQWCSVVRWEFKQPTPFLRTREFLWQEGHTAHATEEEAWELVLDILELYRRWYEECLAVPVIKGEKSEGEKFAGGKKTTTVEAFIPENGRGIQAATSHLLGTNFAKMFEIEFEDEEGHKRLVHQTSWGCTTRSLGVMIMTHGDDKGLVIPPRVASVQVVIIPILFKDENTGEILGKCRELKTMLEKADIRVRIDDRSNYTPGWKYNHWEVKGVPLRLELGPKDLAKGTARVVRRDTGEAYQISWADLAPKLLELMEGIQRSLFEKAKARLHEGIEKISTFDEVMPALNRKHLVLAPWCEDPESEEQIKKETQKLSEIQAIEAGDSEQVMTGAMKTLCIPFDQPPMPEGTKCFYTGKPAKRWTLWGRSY

SMILES: Cc1cc(N2CCC(CO)(C3CC3)C2=O)cc(C(=O)NCc2cc(F)cc(-c3cnn(C)c3)c2)n1 (centres unmarked) [L97]
- EC50 (Toxoplasma gondii WT; read-out: EC50 Treated-L97 (nM)): 544 ± 130 nM
- IC50 [1]: 50 nM
- co-crystal structure with L-pro; aminoacylation inhibition; thermal shift (ΔTm 1) [2]: The complex structure of HsPRS with L95, L96, and L97 was determined

SMILES: Cc1cc(N2CC[C@@](C#N)(C3(C)CC3)C2=O)cc(C(=O)NCc2cc(F)cc(-c3cnn(C)c3)c2)n1 [L35]
- IC50 [3]: 9.2 nM
- EC50 (Toxoplasma gondii WT; read-out: EC50 Treated-L35 (nM)): 31 ± 12 nM

SMILES: CCc1nc(N)nc(N)c1-c1ccc(Cl)cc1 [PYR, pyrimethamine]
- EC50 (Toxoplasma gondii WT; read-out: EC50 Treated-PYR (nM)): 174 ± 60 nM

SMILES: COc1cncc(-c2cc(F)cc(CNC(=O)c3cc(N4CC[C@@](C#N)(C5CC5)C4=O)cc(C)n3)c2)c1 [L96]
- co-crystal structure with L-pro; aminoacylation inhibition; thermal shift (ΔTm 2) [4]: The complex structure of HsPRS with L95, L96, and L97 was determined
- IC50 [5]: 79.7 nM
- EC50 (Toxoplasma gondii WT; read-out: EC50 Treated-L96 (nM)): 106 ± 36 nM

SMILES: Cc1cc(N2CC[C@@](C#N)(C3CC3)C2=O)cc(NC(=O)Cc2ccccc2)n1 [L95]
- co-crystal structure with L-pro; aminoacylation inhibition; thermal shift (ΔTm 1) [6]: The complex structure of HsPRS with L95, L96, and L97 was determined
- EC50 (Toxoplasma gondii WT; read-out: EC50 Treated-L95 (nM)): 277 ± 6 nM
- IC50 [7]: 140 nM

SMILES: Cc1cc(N2CC[C@](C#N)(C3(C)CC3)C2=O)cc(C(=O)NCc2cc(F)cc(-c3cnn(C)c3)c2)n1 [L36]
- IC50 [8]: 2410 nM
- EC50 (Toxoplasma gondii WT; read-out: EC50 Treated-L36 (nM)): 5800 ± 350 nM
